Measurements reported in patent US20260109674A1, “ALLOSTERIC MODULATION OF MUSCARINIC ACETYLCHOLINE RECEPTOR EFFICACY” (The University of Toledo, priority 2022, published 2026).
Marks after values point to notes of the source that are not given here.

Experiments:
[1] = test system: wild-type zebrafish larvae; experiment: Maximum tolerated concentration (MTC) determination in zebrafish larvae; assay type: in vivo, Danio rerio; conditions: after 24-hour exposure; Table 3
Description: Determination of maximum tolerated concentration was completed by placing 5 days post fertilization (dpf) wild-type zebrafish larvae in a 24 well plate at 6 fish per well, and one compound concentration per well. […] Death was determined by the absence of heartbeat. Additional endpoints were used to assess toxicity at non-lethal concentrations such as startle capacity (poke stimulus), abnormalities in swimming behavior (loss of dorsoventral balance), and gross morphological deformities (bent body). […] The MTC determination was used to select three doses of each compound (low, medium, high dose) to be used in behavioral assays.

[2] = test system: wild-type zebrafish larvae; experiment: General locomotor assay in zebrafish larvae (locomotor activity, repetitive behaviors); assay type: in vivo, Danio rerio; conditions: Table 3; test concentration not given; N = 12
Description: Five days post fertilization (dpf) zebrafish larvae were exposed to a range of nonlethal concentrations of the compounds in a 24-well plate with appropriate controls. The movement of each larval zebrafish was monitored with the Noldus behavior recording system (Noldus Information Technology, Leesburg VA) and quantified using EthoVision® XT 15 software (Noldus Information Technology, Leesburg VA). The plate was immediately placed in the incubator for a 30-minute exposure period. After 30 minutes, the plate was transferred to the Noldus system and swimming behavior was recorded in 100% light for 30 minutes to measure spontaneous swimming behavior. The light was switched off for 10 minutes (dark period) and then switched on for 10 minutes (light period), which was then repeated for two additional cycles. In total, the larvae were exposed to three cycles of alternating 10-minute dark and light periods (100% darkness-to-100% light). […]
All data for exposure and the behavioral end points were analyzed by one-way ANOVA (factor: drug conc) followed by a Dunnett's multiple comparisons test for post hoc significance between drug concentration and control group. Statistically significant differences are noted as follows: *, p<0.05; **, p<0.01; ***, p<0.001.

[3] = target: T1, M1 muscarinic receptors expressed in CHO cells (Homo sapiens, UniProt P11229); experiment: [3H]-arachidonic acid release screen with and without ACh and modulator; assay type: cell-based; conditions: for Ratio of response of ACh with modulator to response of ACh alone, 0.1 μM ACh / Ratio of response of ACh with modulator to response of ACh alone, 100 μM ACh / Stimulation of [3H]AA release, No ACh (fraction of stimulation above the control): Table 1; for Modulation of ACh activity (in words): [3H]AA release; for Modulation of ACh activity (in words) / Intrinsic agonist activity (in words): modulator 10 μM; for Intrinsic agonist activity (in words): without ACh
T1 construct: expressed in transfected cells; host or cells: CHO (CHO-hM1, stably transfected)
T1 sequence (P11229 1-460): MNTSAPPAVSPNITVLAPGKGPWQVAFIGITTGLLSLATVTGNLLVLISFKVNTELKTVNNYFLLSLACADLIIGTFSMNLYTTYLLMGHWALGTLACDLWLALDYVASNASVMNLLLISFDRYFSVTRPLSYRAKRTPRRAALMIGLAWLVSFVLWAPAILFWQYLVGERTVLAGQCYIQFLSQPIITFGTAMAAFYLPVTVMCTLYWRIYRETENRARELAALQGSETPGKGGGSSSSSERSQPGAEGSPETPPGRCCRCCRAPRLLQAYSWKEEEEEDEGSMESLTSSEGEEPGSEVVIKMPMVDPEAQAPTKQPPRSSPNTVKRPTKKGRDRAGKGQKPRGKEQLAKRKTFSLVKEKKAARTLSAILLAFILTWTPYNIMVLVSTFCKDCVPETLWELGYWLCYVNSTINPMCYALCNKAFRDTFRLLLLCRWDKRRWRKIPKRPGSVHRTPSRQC
Description: CHO cells expressing human M1 muscarinic receptors were cultured at 37° C. in a 5% CO2 atmosphere in F12 medium supplemented with 5% fetal bovine serum, 100 units/mL penicillin, and 100 μg/mL streptomycin.
Measurement of [^3H]AA release was performed. Stably transfected CHO-hM1 or CHO-hM3 cells were seeded on 24-well plates (Greiner Bio-One GmbH, Frickenhausen, Germany) at a density of 5.0×10^4 cells/well in 0.5 ml of F-12 medium. Cells were incubated until they attached (approximately 3 h), followed by the addition of [^3H]AA to a final concentration of 0.05 μCi of [^3H]AA per well. The cells were then grown for 16 to 20 h before the assay was performed. [^3H]AA release was measured in Eagle's basal medium with 20 mM HEPES and 2 mg/ml fatty acid-free bovine serum albumin (EM-BSA). Cells were rinsed twice with EM-BSA, followed by the addition of EM-BSA media containing experimental agents and incubated for 1 h at 37° C. The assay was terminated by aspiration of the media, and the amount of [^3H]AA released was determined by liquid scintillation counting (Beckman-Coulter LS6500).
For some assays, pretreatment with phenoxybenzamine (POB) was employed, as indicated, to reduce the number of available receptors per cell. Stock POB was made up at 10 mM in ethanol and stored at −20° C. Each well was pretreated with 0.5 ml of the appropriate concentration in PBS with 1 mM CaCl2 and 1 mM MgCl2 (PBS++) for 30 min at 37° C., followed by 5 washes with PBS++. After pretreatment, the normal protocol was followed as above.
Tabulated [^3H]AA release data are represented as a fraction of maximal release in the presence of 100 μM ACh or as the fraction of release elicited by the appropriate concentration of ACh alone, as indicated dose-response curves were normalized to the maximal response of ACh without allosteric ligand. Some response curves were analyzed using the empirical four-parameter equation: […]
Disintegration per minute (DPM) values for a single compound were obtained in triplicate, and each compound was evaluated on three separate 24-well plates. The mean values for each condition from each of the three 24-well plates were used for the statistical analysis. The baseline mean was subtracted from each value, then normalized to the mean response produced by 100 μM ACh (set at 1.0). Statistical analyses were completed on the normalized values via one-way repeated measures ANOVA with Tukey's post hoc test. Statistically significant differences are noted as follows: *, p<0.05; **, p<0.01; ***, p<0.001.

CCCCc1oc2ccccc2c1C(=O)c1cc(I)c(OCCN(CC)CC)c(I)c1 [Amiodarone, reference compound]
Maximum Tolerated Concentration [1]: 10 µM

COc1ccc(Cn2cc(C(=O)O)c(=O)c3ccccc32)cc1 [BQCA, reference compound]
Angular Velocity [2]: 141.8 ± 14.9* % of control | Total Distance Moved [2]: 72.0 ± 10.0* % of control | Variance of Turn Angle [2]: 119.6 ± 7.0* % of control | Ratio of response of ACh with modulator to response of ACh alone, 0.1 μM ACh ([3]; 3 μM modulator): 2.43 ± 0.19 | Ratio of response of ACh with modulator to response of ACh alone, 100 μM ACh ([3]; 3 μM modulator): 0.99 ± 0.02 | Stimulation of [3H]AA release, No ACh (fraction of stimulation above the control) ([3]; 3 μM modulator): 0.06 ± 0.06 | Ratio of response of ACh with modulator to response of ACh alone, 0.1 μM ACh ([3]; 10 μM modulator): 2.34 ± 0.23 | Ratio of response of ACh with modulator to response of ACh alone, 100 μM ACh ([3]; 10 μM modulator): 0.86 ± 0.03 | Stimulation of [3H]AA release, No ACh (fraction of stimulation above the control) ([3]; 10 μM modulator): 0.37 ± 0.04

CCCCc1oc2ccccc2c1C(=O)c1cc(I)c(OCCNCC)c(I)c1.Cl [Compound 1, (2-butylbenzofuran-3-yl)(4-(2-(ethylamino)ethoxy)-3,5-diiodophenyl)methanone hydrochloride]
Maximum Tolerated Concentration [1]: 3 µM | Ratio of response of ACh with modulator to response of ACh alone, 0.1 μM ACh ([3]; 10 μM modulator): 0.75 ± 0.08 | Ratio of response of ACh with modulator to response of ACh alone, 100 μM ACh ([3]; 10 μM modulator): 0.67 ± 0.02 | Stimulation of [3H]AA release, No ACh (fraction of stimulation above the control) ([3]; 10 μM modulator): 0.22 ± 0.01 | Modulation of ACh activity (in words) [3]: weaker efficacy PAM relative to amiodarone

CCCCc1oc2ccccc2c1C(=O)c1cc(I)c(OCCN(CC)C(C)=O)c(I)c1 [Compound 5a, N-(2-(4-(2-butylbenzofuran-3-carbonyl)-2,6-diiodophenoxy)ethyl)-N-ethylacetamide]
Maximum Tolerated Concentration [1]: 10 µM | Increase of mAChR activity compared to treatment with ACh alone ([3]; 10 μM modulator): 70% | Ratio of response of ACh with modulator to response of ACh alone, 0.1 μM ACh ([3]; 10 μM modulator): 2.22 ± 0.26 | Ratio of response of ACh with modulator to response of ACh alone, 100 μM ACh ([3]; 10 μM modulator): 1.58 ± 0.03 | Stimulation of [3H]AA release, No ACh (fraction of stimulation above the control) ([3]; 10 μM modulator): 0.17 ± 0.04 | Intrinsic agonist activity (in words) [3]: significant intrinsic agonist activity

CCCCc1oc2ccccc2c1C(=O)c1cc(I)c(OCCN(CC)C(=O)c2ccccc2)c(I)c1 [Compound 5b, N-(2-(4-(2-butylbenzofuran-3-carbonyl)-2,6-diiodophenoxy)ethyl)-N-ethylbenzamide]
Maximum Tolerated Concentration [1]: 10 µM | Increase of mAChR activity compared to treatment with ACh alone ([3]; 10 μM modulator): 80% | Ratio of response of ACh with modulator to response of ACh alone, 0.1 μM ACh ([3]; 10 μM modulator): 1.34 ± 0.05 | Ratio of response of ACh with modulator to response of ACh alone, 100 μM ACh ([3]; 10 μM modulator): 1.26 ± 0.05 | Stimulation of [3H]AA release, No ACh (fraction of stimulation above the control) ([3]; 10 μM modulator): 0.02 ± 0.01 | Intrinsic agonist activity (in words) [3]: lacked intrinsic activity

CCCCc1oc2ccccc2c1C(=O)c1ccc(OC)cc1 [Compound 6a, (2-butylbenzofuran-3-yl)(4-methoxyphenyl)methanone]
Maximum Tolerated Concentration [1]: 3 µM | Ratio of response of ACh with modulator to response of ACh alone, 0.1 μM ACh ([3]; 10 μM modulator): 1.18 ± 0.06 | Ratio of response of ACh with modulator to response of ACh alone, 100 μM ACh ([3]; 10 μM modulator): 1.03 ± 0.03 | Stimulation of [3H]AA release, No ACh (fraction of stimulation above the control) ([3]; 10 μM modulator): 0.05 ± 0.01

CCCCc1oc2ccccc2c1C(=O)c1cc(I)c(OC)c(I)c1 [Compound 6b, (2-butylbenzofuran-3-yl)(3,5-diiodo-4-methoxyphenyl)methanone]
Maximum Tolerated Concentration [1]: 30 µM | Ratio of response of ACh with modulator to response of ACh alone, 0.1 μM ACh ([3]; 10 μM modulator): 1.6 ± 0.07 | Ratio of response of ACh with modulator to response of ACh alone, 100 μM ACh ([3]; 10 μM modulator): 1.32 ± 0.08 | Stimulation of [3H]AA release, No ACh (fraction of stimulation above the control) ([3]; 10 μM modulator): 0.06 ± 0.01 | Modulation of ACh activity (in words) [3]: increased ACh activity
